Test results: the NIST ThermoML archive (doi:10.1016/j.jct.2008.03.013)
Values joined by “and” are separate entries in the source; they are usually repeats but may differ in a detail not shown here. Equal entries are not always repeated.

Key:
[1] = refractive index (Na D-line) (dimensionless); details: 298.15 K; 101.33 kPa; Liquid; Standard Abbe refractometry
[2] = 100 kPa, Liquid
[3] = xn = mol fraction of the nth substance listed; details: 100 kPa, Liquid
[4] = refractive index (Na D-line) (dimensionless); xn = mol fraction of the nth substance listed; details: 298.15 K, 100 kPa, Liquid, Standard Abbe refractometry

CCO [ethanol]
Details	refractive index
[1]	1.36023

[2]
Details	mass density [kg/m3]	viscosity [mPa·s]
298.15 K	785.46	1.082
313.15 K	772	0.827
328.15 K	758.55	0.641

CCCCn1cc[n+](C)c1.COS(=O)(=O)[O-] [1-butyl-3-methylimidazolium methyl sulfate] + O
[3]
Details	mass density, 298.15 K [kg/m3]	mass density, 313.15 K [kg/m3]	mass density, 328.15 K [kg/m3]	viscosity, 298.15 K [mPa·s]	viscosity, 313.15 K [mPa·s]	viscosity, 328.15 K [mPa·s]
x2 = 0	1213.43	1203.48	1193.59	182.3	84.8	45.35
x2 = 0.0325	1212.91	1202.96	1193.03	177	82.8	44.8
x2 = 0.1703	1211.05	1201.02	1190.99	137	68.9	41.09
x2 = 0.2989	1208.33	1198.3	1188.25	95.4	51.5	33.85
x2 = 0.4104	1204.62	1194.57	1184.54	65.5	35.77	23.52
x2 = 0.4774	1201.72	1191.55	1181.33	50.2	27.55	18.25
x2 = 0.5886	1194.68	1184.43	1174.25	31.93	18.4	11.98
x2 = 0.6859	1185.23	1174.8	1164.26	20.28	12.03	7.862
x2 = 0.7856	1168.21	1157.61	1146.83	11.42	7.027	4.738
x2 = 0.8899	1130.52	1120.17	1109.5	5.071	3.296	2.306
x2 = 0.9466	1085.81	1076.83	1067.17	2.597	1.763	1.281

[4]
Details	refractive index
x2 = 0	1.47792
x2 = 0.0325	1.47746
x2 = 0.1703	1.47584
x2 = 0.2989	1.47341
x2 = 0.4104	1.47032
x2 = 0.4774	1.46814
x2 = 0.5886	1.463
x2 = 0.6859	1.45603
x2 = 0.7856	1.44395
x2 = 0.8899	1.41842
x2 = 0.9466	1.38937

CCCCn1cc[n+](C)c1.COS(=O)(=O)[O-] [1-butyl-3-methylimidazolium methyl sulfate] + CCO
[3]
Details	mass density, 298.15 K [kg/m3]	mass density, 313.15 K [kg/m3]	mass density, 328.15 K [kg/m3]	viscosity, 298.15 K [mPa·s]	viscosity, 313.15 K [mPa·s]	viscosity, 328.15 K [mPa·s]
x2 = 0	1213.43	1203.48	1193.59	182.3	84.7	45.35
x2 = 0.0651	1205.77	1195.71	1185.73	156.7	74.9	40.76
x2 = 0.0922	1202.49	1192.4	1182.4	131.9	64.1	35.9
x2 = 0.2011	1187.41	1177.24	1167.12	88.6	46.28	27.16
x2 = 0.3091	1169.23	1158.88	1148.61	56.32	31.64	19.89
x2 = 0.402	1150.09	1139.56	1129.14	37.85	22.35	14.41
x2 = 0.491	1127.58	1117.04	1106.55	25.04	15.62	10.53
x2 = 0.5788	1100.78	1089.92	1079.14	16.22	10.58	7.263
x2 = 0.7142	1043.7	1032.43	1021.2	7.427	5.271	4.019
x2 = 0.807	989.09	977.5	965.92	4.349	3.197	2.503
x2 = 0.895	917.29	905.22	893.02	2.465	1.863	1.432
x2 = 0.9445	863.52	851.11	838.48	1.733	1.319	1.033

[4]
Details	refractive index
x2 = 0	1.47792
x2 = 0.0651	1.4759
x2 = 0.0922	1.475
x2 = 0.2011	1.4711
x2 = 0.3091	1.46633
x2 = 0.402	1.46114
x2 = 0.491	1.45512
x2 = 0.5788	1.4478
x2 = 0.7142	1.43243
x2 = 0.807	1.41714
x2 = 0.895	1.39734
x2 = 0.9445	1.38212

CCO [ethanol] + CCCCn1cc[n+](C)c1.COS(=O)(=O)[O-]
[3], x1 = 1
Details	mass density [kg/m3]	viscosity [mPa·s]
298.15 K	785.46	1.082
313.15 K	772	0.827
328.15 K	758.55	0.641

Details	refractive index
[4], x1 = 1	1.36023

CCCCn1cc[n+](C)c1.COS(=O)(=O)[O-] [1-butyl-3-methylimidazolium methyl sulfate]
Details	refractive index
[1]	1.47792

[2]
Details	mass density [kg/m3]	viscosity
298.15 K	1213.43	182.3 mPa·s
313.15 K	1203.48	84.8 mPa·s and 84.7 mPa·s
328.15 K	1193.59	45.35 mPa·s
